Laboratory results: US20260034112A1, “MULTI-CYCLIC IRAK1 AND IRAK4 INHIBITING COMPOUNDS AND USES THEREOF” (CHILDREN'S HOSPITAL MEDICAL CENTER, priority 2022, published 2026)

Test system: THP1 cells
Format: cell-based, human

## Cc1cc(-c2nc(C(=O)Nc3cc4oc(N5CCOCC5)nc4nc3N3CC[C@@H](O)C3)co2)ccn1 [CA-4948, emavusertib]
  Log(FC) of gene KCNH2: −0.6125
CA-4948 vs DMSO in THP1 cells
  Log(FC) of gene ABCC2: 0.6855
  Log(FC) of gene AC016629.8: 0.586
  Log(FC) of gene AC093391.2: 0.7835
  Log(FC) of gene ADAM8: 0.6886
  Log(FC) of gene ADAM19: 0.5984
  Log(FC) of gene ADCY4: 1.023
  Log(FC) of gene AMH: 0.7789
  Log(FC) of gene ANKFN1: 0.6129
  Log(FC) of gene ANKRD34A: 0.9288
  Log(FC) of gene AP3B2: 0.7192
  Log(FC) of gene AP000330.8: 0.7147
  Log(FC) of gene APOE: 0.6335
  Log(FC) of gene APOLD1: 0.7365
  Log(FC) of gene ARID3C: 0.8751
  Log(FC) of gene ARL17B: 0.6318
  Log(FC) of gene ARTN: 0.6881
  Log(FC) of gene ASIC3: 1.28
  Log(FC) of gene ATP2B3: 0.7931
  Log(FC) of gene AURKB: 0.6324
  Log(FC) of gene BRICD5: 0.6636
  Log(FC) of gene BTBD19: 0.6939
  Log(FC) of gene BVES-AS1: 0.5945
  Log(FC) of gene BZRAP1: 1.334
  Log(FC) of gene C1orf51: 1.033
  Log(FC) of gene C2orf48: 0.606
  Log(FC) of gene C5orf56: 0.7488
  Log(FC) of gene C9orf37: 0.6108
  Log(FC) of gene C15orf62: 0.8673
  Log(FC) of gene C16orf86: 0.6351
  Log(FC) of gene CACTIN-AS1: 0.7321
  Log(FC) of gene CATSPER3: 0.6152
  Log(FC) of gene CCDC103: −0.6115
  Log(FC) of gene CCDC109B: 0.8991
  Log(FC) of gene CCDC154: 0.7952
  Log(FC) of gene CCDC155: 0.6645
  Log(FC) of gene CCDC183: 0.9658
  Log(FC) of gene CD101: 0.5897
  Log(FC) of gene CD163: −0.5952
  Log(FC) of gene CD302: 0.6021
  Log(FC) of gene CDC42EP2: 0.6518
  Log(FC) of gene CEACAM19: 1.259
  Log(FC) of gene CGN: 0.9021
  Log(FC) of gene CHN2: 0.8531
  Log(FC) of gene CHRFAM7A: −0.9429
  Log(FC) of gene CILP2: 0.8989
  Log(FC) of gene CLDN15: 0.6387
  Log(FC) of gene CLEC10A: 0.6157
  Log(FC) of gene CLEC12B: 0.7555
  Log(FC) of gene CLK1: 1.08
  Log(FC) of gene CLK3: 0.9323
  Log(FC) of gene CLK4: 0.8127
  Log(FC) of gene CMTM1: 1.158
  Log(FC) of gene CNIH2: 0.9526
  Log(FC) of gene CNKSR1: 0.9226
  Log(FC) of gene COL7A1: 1.605
  Log(FC) of gene CPNE5: 0.7008
  Log(FC) of gene CPT1B: 1.318
  Log(FC) of gene CRABP2: 3.095
  Log(FC) of gene CTRL: 1.027
  Log(FC) of gene DCAF4L1: 1.097
  Log(FC) of gene DCAKD: 0.6901
  Log(FC) of gene DCST2: 1.278
  Log(FC) of gene DDB2: 0.5883
  Log(FC) of gene DEGS2: 0.6503
  Log(FC) of gene DMPK: 0.6345
  Log(FC) of gene DNAH1: 0.6015
  Log(FC) of gene DNAJC27-AS1: 0.6304
  Log(FC) of gene DNASE1L2: 1.008
  Log(FC) of gene DND1: 1.389
  Log(FC) of gene DNHD1: 1.083
  Log(FC) of gene DRP2: 0.9019
  Log(FC) of gene EFCAB12: 1.697
  Log(FC) of gene EGFR: 0.882
  Log(FC) of gene EIF3CL: 0.7466
  Log(FC) of gene ELMO3: 0.7963
  Log(FC) of gene ENHO: 0.7452
